Laboratory results taken from patent US6809112B2, “Method of treating sexual disturbances” (priority 1999, dated 2004).

Assays:
[1] = system: patient with Female Orgasmic Disorder; assay: Treatment of Female Orgasmic Disorder (Examples D, L); format: in vivo, human; details: 1 mg/dose about 0.5 hr before sexual activity; examined after two months; patient report
Excerpt: A 50 kg, patient who married three months before presenting for treatment. […] They were not sexually active prior to marriage. They report that their spouse had multiple premarital partners and that they report all their past partners had orgasms. The patient is upset by their inability to have orgasms and feels they are an poor spouse. On questioning they report that they are “too fat” although their weight is appropriate for their height. […] They currently take no prescription drugs other than low dose birth control pills. […] The patient is diagnosed as having Female Orgasmic Disorder that is situational due to psychological factors (Diagnostic and Statistical Manual of Mental Disorders, Fourth Edition, 1994). (5R)-(methylamino)-5,6-dihydro-4H-imidazo[4,5,1-ij]quinolin-2(1H)-one (Z)-2-butenedioate (1:1) is prescribed at 1 mg/dose to be taken about 0.5 hr before the patient intends to engage in sexual activity. The patient is instructed that they may use the drug on a daily basis, if this is the intended frequency of sexual activity. The patient is examined after two months. They report that they use the drug prior to intercourse. […] It is recommended that the patient continue to use the drug for an additional six months, then stop taking the drug for a period of two weeks to determine whether they might now be able to have orgasms in the absence of drug therapy.

[2] = system: patient with Female Sexual Arousal Disorder; assay: Treatment of Female Sexual Arousal Disorder in a patient (Examples B, J); format: in vivo, human; details: 3 mg/dose 0.5-1 hr before sexual activity; examined after one month; patient report
Excerpt: A 64 kg, patient is complaining of vaginal dryness and mild discomfort during sexual intercourse. The patient recently began a relationship with a person. Their partner complained of their vaginal dryness and poor vaginal expansion during sexual intercourse. Their partner has made several comments about this during the previous two months and the patient is concerned that their partner is dissatisfied with their lack of sexual responsiveness and may end the relationship. The patient reports that they desire to continue the relationship. The patient has had several previous sexual relationships. They report that vaginal dryness and some discomfort with vaginal intercourse has occurred during their past sexual relationships. […] They find their current partner attractive and sexual desirable. […] During these episodes they usually have an orgasm. Lubrication is not a problem when they masturbate. […] They currently take no prescription drugs other than low dose birth control pills. […] The patient is diagnosed as having Female Sexual Arousal Disorder that is situational due to psychological factors (Diagnostic and Statistical Manual of Mental Disorders, Fourth Edition, 1994). (5R)-(methylamino)-5,6-dihydro-4H-imidazo[4,5,1-ij]quinolin-2(1H)-one (Z)-2-butenedioate (1:1) is prescribed at 3 mg/dose to be taken 0.5-1 hr before the patient intends to engage in sexual activity. The patient is instructed that they may use the drug on a daily basis, if this is the intended frequency of sexual activity. The patient is examined after one month. They report that they use the drug prior to intercourse. […] The patient is instructed to continue using the drug.

[3] = system: male and female Giant Pandas; assay: Mating of animals of commercial value (Examples F, N); format: in vivo, Giant Panda; details: 0.05 mg of free base equivalents per kilogram of body weight in diet, one occasion; for induction of mating (treatment effect): one hour after ingesting
Excerpt: An adult male Giant Panda on temporary loan from a foreign zoo is desired to have breed to an adult female Giant Panda which is normally resident at the zoo. Because of the commercial value of a potential off-spring it is desirable that the animals mate during the time the adult male is on loan. […] As an alternative to anesthetizing the animals for a facilitated transfer of semen between the animals, the male and female Giant Pandas have (5R)-(methylamino)-5,6-dihydro-4H-imidazo[4,5,1-ij]quinolin-2(1H)-one (Z)-2-butenedioate (II) added to their diet on one occasion. The concentration of drug in the diet is calculated to deliver 0.05 mg of free base equivalents of (5R)-(methylamino)-5,6-dihydro-4H-imidazo[4,5,1-ij]quinolin-2(1H)-one (Z)-2-butenedioate (1:1) per kilogram of body weight.

[4] = system: patient with Hypoactive Sexual Desire Disorder; assay: Treatment of Hypoactive Sexual Desire Disorder in a patient (Examples A, I); format: in vivo, human; details: 1 mg/dose 0.5 hr before sexual activity, examined after one month, patient report
Excerpt: A 44 kg, patient is referred by their psychologist for evaluation for and medical treatment of hypoactive sexual desire disorder. The patient recently began to co-habitate with a person. They consulted a clinical psychologist because of distress over frequent arguments with their partner. These arguments concern their frustration that their partner is unwilling to marry them and the partner's accusations that they are sexually unresponsive and “boring in bed.” The patient reports that although they desire to continue the relationship, they have little or no interest in sexual activity with this partner. The partner initiates all sexual activity in the relationship and they comply so that the relationship will continue. They state that their partner desires sexual intercourse about once per day. Occasionally, the couple's frequency of sexual intercourse is as much as twice per day. […] They currently take no prescription drugs other than low dose birth control pills. […] The patient is diagnosed as having Hypoactive Sexual Desire Disorder of acquired onset due to situational factor (Diagnostic and Statistical Manual of Mental Disorders, Fourth Edition, 1994). (5R)-(methylamino)-5,6-dihydro-4H-imidazo[4,5,1-ij]quinolin-2(1H)-one (Z)-2-butenedioate (1:1) is prescribed at 1 mg/dose to be taken 0.5 hr before the patient intends to engage in sexual activity. The patient is instructed that they may use the drug on a daily basis, if they and their partner desire sexual activity at this frequency. They are also instructed that on occasions they may use the drug twice in a single day if this is the intended frequency of intercourse. The patient is examined after one month. They report that they use the drug once, and occasionally twice, per day. […] They also report that they and their partner argue less frequently and that their partner no longer accuses them of being disinterested in sexual relations. The patient is instructed to continue using the drug.

## CN[C@@H]1Cc2cccc3[nH]c(=S)n(c23)C1 [(5R)-5-(Methylamino)-5,6-dihydro-4H-imidazo[4,5,1-ij]quinoline-2(1H)-thione]
[1]
  treatment effect (sexual relationship): same positive treatment effect
[2]
  treatment effect (sexual relationship): same positive treatment effect
[3]
  induction of mating (treatment effect): same positive treatment effect
[4]
  treatment effect (sexual relationship): same positive treatment effect

## CN[C@@H]1Cc2cccc3[nH]c(=O)n(c23)C1.O=C(O)/C=C\C(=O)O [(5R)-(methylamino)-5,6-dihydro-4H-imidazo[4,5,1-ij]quinolin-2(1H)-one (Z)-2-butenedioate (1:1)]
[1]
  orgasm during sexual intercourse: has an orgasm during sexual intercourse on most occasions
  treatment effect (sexual relationship): enjoys an improved sexual relationship with their partner
[2]
  pain during initiation of vaginal penetration: no longer has pain
  treatment effect (sexual relationship): enjoys an improved sexual relationship with their partner
  vaginal dryness: no longer a problem
[3]
  pregnancy and birth from the mating: A pregnancy and subsequent birth of an off-spring results
  induction of mating (treatment effect): the animals engage in sexual intercourse
[4]; once, occasionally twice, per day
  frequency of sexual fantasies: 3-4 occasions per week
[4]
  initiation of sexual activity: occasionally initiates sexual activity with their partner
  treatment effect (sexual relationship): enjoys an improved sexual relationship with their partner
